Like-named read-outs stand apart in the source and are kept apart here.
Key:
Format in all cases: cell-based
[1] = test system: Lactobacillus plantarum HAC03; assay: in vitro Simulated Stomach Duodenum Passage (SSDP) probiotic survivability, lyophilized HAC03; conditions: for survivability compared with fresh cells, in words / Artificial Bile Juice Survivability (%) / Artificial Bile Juice log CFU/mL / Artificial Gastric Juice Survivability (%) / Artificial Gastric Juice log CFU/mL: Table 3; for Artificial Bile Juice Survivability (%) / Artificial Bile Juice log CFU/mL / Artificial Gastric Juice Survivability (%) / Artificial Gastric Juice log CFU/mL: carbohydrate mixed with HAC03 lyophilizate; for viability at 100000 µM: Lactiplantibacillus plantarum; for intestinal survivability (acid resistance and bile resistance) in words: compared to fresh bacteria / distilled water
Description: The HAC03 strain was mixed with each of the single compositions and 1 mL of distilled water for 1 min. The compositions were formulated to have a final concentration of 0.1 M when dissolved in 1 ml of distilled water. Thereafter, 9 mL of distilled water adjusted to have a pH of 2.5 was added to each mixture. The pH was readjusted back to 2.5 in case of an increased pH due to the nature of some of the single ingredients (in order to not affect the survival of the probiotics). After adjusting the pH to 2.5, the tubes were incubated at 37° C. for 1 hour to apply the low-pH gastric stress condition. […] During the gastrointestinal tract assay, the samples were taken immediately, 1 hour, and […] after the incubation (t=0, 1, and 2). The probiotic survivability of each sample after gastric stress and bile stress was calculated by counting viable colonies.

[2] = test system: Lactobacillus plantarum HAC03; assay: Zeta potential of lyophilized probiotics mixed with single ingredients (screening); conditions: 0.1 M ingredient, rehydrated 1 min, pH 2.5
Description: In this experimental example, Lactobacillus plantarum HAC03 (accession number: KCTC13242BP, the Korean Research Institute of Bioscience and Biotechnology) (hereinafter referred to as “HAC03”), which was described in Korean Patent Application No. 10-2017-0051574, was used as a probiotic strain.
Afterwards, 2 mL of pH 2.5 distilled water was added to each sample, the pH was re-adjusted using HCl 0.1 N, and 800 μl of the calibrated sample was loaded in DTS1080 cuvettes. The electrophoretic mobility was measured by the Zetaizer Nano ZEN 3600 (Malvern Panalytica, UK) after 2 minutes of equilibration and the Smoluchowski equation was used to convert the data into zetapotential values.
In this experiment, zeta potentials were measured at a pH of 2.5 in consideration of the highly acidic stomach environment, which is one of the initial hurdles that drastically reduce the survivability of the bacteria.

[3] = test system: Lactobacillus casei Lc-11; assay: Bacterial adhesion to human enterocyte-like Caco-2/TC-7 cell line, lyophilized Lc-11; conditions: 0.03 M, compared to the freeze-dried form
From the text: (§1) An examination was made to see whether the effect of reactivating lyophilized probiotics is applicable to various strains in this experimental example. In this regard, lyophilized Bifidobacterium longum Bl-05 (Dupont; hereinafter referred to as “Bl-05”), Lactobacillus plantarum Lp-115 (Dupont; hereinafter referred to as “Lp-115”), Lactobacillus casei Lc-11 (Dupont; hereinafter referred to as “Lc-11”), and 7-strain mixture (400B) (Dupont; hereinafter referred to as “MIX”) were reactivated with L-lysine and then assayed for their ability to adhere to the human enterocyte-like Caco-2/TC-7 cell line.
(§2) Lyophilizates of the three strains and the 7-strain mix were adjusted to 2×10^8 CFU/g and mixed with 0.03 M L-lysine or 0.03 M proline. The pellets were washed three time with 1× PBS and resuspended in 10 ml MEM cell culture media supplemented with 20% FBS, 2 mM glutamine, and 1% non-essential amino acids. A bacterial adhesion assay was performed according to the method of Botes et al. (Arch. Microbiol, 190 (2008), pp. 573-584) with some modifications. […] To quantify the number of bacteria attached to Caco-2/TC-7 cells, the samples were serially diluted, incubated on MRS agar plates for 48 hours (37° C.), and then counted to measure relative adhesion ratio (counts of attached bacteria in test groups to counts of attached bacteria in the control). […]

[4] = test system: Bifidobacterium longum Bl-05; assay: Bacterial adhesion to human enterocyte-like Caco-2/TC-7 cell line, lyophilized Bl-05; conditions: 0.03 M, compared to the freeze-dried form
From the text: as §1, §2

[5] = test system: Lactobacillus plantarum Lp-115; assay: Bacterial adhesion to human enterocyte-like Caco-2/TC-7 cell line, lyophilized Lp-115; conditions: 0.03 M; L-lysine compared to the freeze-dried form, proline compared to L-lysine-reactivated
From the text: as §1, §2

7-strain mixture (400B) = assay: Bacterial adhesion to human enterocyte-like Caco-2/TC-7 cell line, lyophilized 7-strain mixture; conditions: 0.03 M, compared to the freeze-dried form
From the text: as §1, §2

[6] = HAC03, 1 h, pH 2.5, read-out: Stomach Survivability (%)
[7] = HAC03, 2 h, pH 6, read-out: Duodenum Survivability (%)
[8] = Table 1, 0.1 M ingredient, pH 2.5, 37° C., 1 hour
[9] = Table 1, 0.1 M ingredient, then bile salts (10% ox gall) and pH 6.0 synthetic duodenum juice, 2 hours
[10] = HAC03, Table 1, 0.1 M ingredient, pH 2.5, 37° C., 1 hour, read-out: Stomach Survivability (%)
[11] = HAC03, Table 1, 0.1 M ingredient, then bile salts (10% ox gall) and pH 6.0 synthetic duodenum juice, 2 hours, read-out: Duodenum Survivability (%)

Row | SMILES | Artificial Bile Juice Survivability (%) [1] | Artificial Bile Juice log CFU/mL [1] | Artificial Gastric Juice Survivability (%) [1] | Artificial Gastric Juice log CFU/mL [1] | zeta potential of lyophilized HAC03 mixed with the ingredient (sign, FIG. 1) [2] | Stomach log CFU/mL [1, 8] | Duodenum log CFU/mL [1, 9] | intestinal survivability (acid resistance and bile resistance) in words ([1]; Table 1) | also measured
1 | OC[C@H]1O[C@H](O[C@H]2[C@H](O)[C@@H](O)C(O)O[C@@H]2CO)[C@H](O)[C@@H](O)[C@@H]1O (mixture of isomers) [Maltose] | 33.79% | 7.61 ± 0.13 log CFU/mL | 85.43% | 8.02 ± 0.05 log CFU/mL | – | – | – | – | survivability compared with fresh cells, in words [1]: survivability similar to or higher than that of fresh cells
2 | O=C[C@@H](O)[C@H](O)[C@H](O)CO [Arabinose] | 9.45% | 7.02 ± 0.35 log CFU/mL | 17.78% | 7.12 ± 0.67 log CFU/mL | – | – | – | – | –
3 | O=C(CO)[C@@H](O)[C@H](O)[C@H](O)CO [Fructose] | 20.73% | 7.27 ± 0.48 log CFU/mL | 46.18% | 7.67 ± 0.37 log CFU/mL | – | – | – | – | survivability compared with fresh cells, in words [1]: survivability similar to or higher than that of fresh cells
4 | N=C(N)NCCC[C@H](N)C(=O)O [L-Arginine, L-arginine] | – | – | – | – | positive zeta potentials | 4.00 ± 0.00 log CFU/mL | 3.73 ± 0.34 log CFU/mL | intestinal survivability far inferior to that of distilled water | viability at 100000 µM [1, 6]: 0.13%; viability at 100000 µM [1, 7]: 0.08%
5 | O=C1O[C@H]([C@@H](O)CO)C(O)=C1O [L-Ascorbic acid, L-ascorbic acid] | – | – | – | – | positive zeta potentials | 4.08 ± 0.15 log CFU/mL | 3.49 ± 0.00 log CFU/mL | intestinal survivability far inferior to that of distilled water | viability at 100000 µM [1, 6]: 0.4%; viability at 100000 µM [1, 7]: 0.1%
6 | N[C@@H](CC(=O)O)C(=O)O [L-Aspartic acid, L-aspartic acid] | – | – | – | – | positive zeta potentials | 7.06 ± 0.56 log CFU/mL | 5.80 ± 0.64 log CFU/mL | intestinal survivability far inferior to that of distilled water | viability at 100000 µM [1, 10]: 29.9%; viability at 100000 µM [1, 11]: 1.86%
7 | N[C@@H](Cc1c[nH]cn1)C(=O)O [L-Histidine, L-histidine] | – | – | – | – | negative zeta potentials | 7.83 ± 0.11 log CFU/mL | 7.52 ± 0.08 log CFU/mL | increased in acid resistance and bile resistance | viability at 100000 µM [1, 10]: 56.6%; viability at 100000 µM [1, 11]: 27.2%
8 | NCCC[C@H](N)C(=O)O [L-Ornithine, L-ornithine] | – | – | – | – | negative zeta potentials | 7.75 ± 0.02 log CFU/mL | 7.57 ± 0.03 log CFU/mL | – | –
9 | N[C@@H](Cc1ccc(O)cc1)C(=O)O [L-Tyrosine, L-tyrosine] | – | – | – | – | negative zeta potentials | 7.98 ± 0.04 log CFU/mL | 7.65 ± 0.01 log CFU/mL | increased in acid resistance and bile resistance | viability at 100000 µM [1, 10]: 73.5%; viability at 100000 µM [1, 11]: 33.9%
10 | O=C(O)CC(O)C(=O)O (stereo not shown) [Malic acid, malic acid] | – | – | – | – | positive zeta potentials | <3.99 ± 0.00 log CFU/mL | <3.49 ± 0.00 log CFU/mL | intestinal survivability far inferior to that of distilled water | viability at 100000 µM [1, 10]: < 0.01%; viability at 100000 µM [1, 11]: < 0.003%
11 | OC[C@@H](O)[C@@H](O)[C@H](O)[C@H](O)CO [Mannitol] | 11.77% | 6.90 ± 0.44 log CFU/mL | 20.04% | 7.18 ± 0.32 log CFU/mL | – | – | – | – | –
12 | C[C@H](O)[C@H](O)[C@@H](O)[C@@H](O)C=O [Rhamnose] | 18.25% | 7.53 ± 0.08 log CFU/mL | 40.75% | 7.87 ± 0.10 log CFU/mL | – | – | – | – | –
13 | OC[C@@H](O)[C@@H](O)[C@H](O)[C@@H](O)CO [Sorbitol] | 40.46% | 7.69 ± 0.09 log CFU/mL | 82.06% | 8.00 ± 0.05 log CFU/mL | – | – | – | – | survivability compared with fresh cells, in words [1]: survivability similar to or higher than that of fresh cells
14 | OC[C@H]1O[C@@](CO)(O[C@H]2O[C@H](CO)[C@@H](O)[C@H](O)[C@H]2O)[C@@H](O)[C@@H]1O [Sucrose] | 42.99% | 7.71 ± 0.13 log CFU/mL | 80.90% | 7.99 ± 0.13 log CFU/mL | – | – | – | – | survivability compared with fresh cells, in words [1]: survivability similar to or higher than that of fresh cells
15 | OC[C@H]1O[C@H](O[C@H]2O[C@H](CO)[C@@H](O)[C@H](O)[C@H]2O)[C@H](O)[C@@H](O)[C@@H]1O [Trehalose] | 28.10% | 7.36 ± 0.03 log CFU/mL | 54.75% | 7.65 ± 0.05 log CFU/mL | – | – | – | – | survivability compared with fresh cells, in words [1]: survivability similar to or higher than that of fresh cells
16 | O=C[C@H](O)[C@@H](O)[C@H](O)CO [Xylose] | 8.47% | 6.97 ± 0.49 log CFU/mL | 27.36% | 7.50 ± 0.25 log CFU/mL | – | – | – | – | –
17 | O=C(O)[C@@H]1CCCN1 [proline, reference compound] | – | – | – | – | positive zeta potentials | – | – | – | bacterial cell adhesion to Caco-2/TC-7 (FIGS. 2A and 2E), in words [3]: remarkably lower in adhesion; bacterial cell adhesion to Caco-2/TC-7 (FIGS. 2B and 2F), in words [4]: remarkably lower in adhesion; bacterial cell adhesion to Caco-2/TC-7 (FIGS. 2C and 2G), in words [5]: remarkably lower in adhesion; bacterial cell adhesion to Caco-2/TC-7 (FIGS. 2D and 2H), in words (7-strain mixture (400B)): remarkably lower in adhesion
